From PMC9829398 (Plant Biotechnology Journal, 2022)

Test system: tobacco roots
Assay: RNA-seq of tobacco roots (DEGs, GO and KEGG classification and enrichment)
Type: in vivo
[1] = KEGG ko00040 Pentose and glucuronate interconversions
[2] = KEGG ko00052 Galactose metabolism
[3] = KEGG ko00062 Fatty acid elongation
[4] = KEGG ko00071 Fatty acid degradation
[5] = KEGG ko00073 Cutin, suberine and wax biosynthesis
[6] = KEGG ko00100 Steroid biosynthesis
[7] = KEGG ko00250 Alanine, aspartate and glutamate metabolism
[8] = KEGG ko00270 Cysteine and methionine metabolism
[9] = KEGG ko00290 Valine, leucine and isoleucine biosynthesis
[10] = KEGG ko00330 Arginine and proline metabolism
[11] = KEGG ko00350 Tyrosine metabolism
[12] = KEGG ko00360 Phenylalanine metabolism
[13] = KEGG ko00410 beta-Alanine metabolism
[14] = KEGG ko00430 Taurine and hypotaurine metabolism
[15] = KEGG ko00460 Cyanoamino acid metabolism
[16] = KEGG ko00480 Glutathione metabolism
[17] = KEGG ko00500 Starch and sucrose metabolism
[18] = KEGG ko00511 Other glycan degradation
[19] = KEGG ko00520 Amino sugar and nucleotide sugar metabolism
[20] = KEGG ko00531 Glycosaminoglycan degradation
[21] = KEGG ko00561 Glycerolipid metabolism
[22] = KEGG ko00564 Glycerophospholipid metabolism
[23] = KEGG ko00590 Arachidonic acid metabolism
[24] = KEGG ko00591 Linoleic acid metabolism
[25] = KEGG ko00592 alpha-Linolenic acid metabolism
[26] = KEGG ko00603 Glycosphingolipid biosynthesis - globo series
[27] = KEGG ko00604 Glycosphingolipid biosynthesis - ganglio series
[28] = KEGG ko00650 Butanoate metabolism
[29] = KEGG ko00730 Thiamine metabolism
[30] = KEGG ko00760 Nicotinate and nicotinamide metabolism
[31] = KEGG ko00770 Pantothenate and CoA biosynthesis
[32] = KEGG ko00904 Diterpenoid biosynthesis
[33] = KEGG ko00905 Brassinosteroid biosynthesis
[34] = KEGG ko00906 Carotenoid biosynthesis
[35] = KEGG ko00908 Zeatin biosynthesis
[36] = KEGG ko00909 Sesquiterpenoid and triterpenoid biosynthesis
[37] = KEGG ko00910 Nitrogen metabolism
[38] = KEGG ko00940 Phenylpropanoid biosynthesis
[39] = KEGG ko00941 Flavonoid biosynthesis
[40] = KEGG ko00950 Isoquinoline alkaloid biosynthesis

c1nc2nc(Nc3ccc(N4CCOCC4)cc3)nc(NC3CCCCC3)c2[nH]1 [Reversine]
Enrichment_score [1]: 2.934
ListHits [1]: 15
Enrichment_score [2]: 3.3846
ListHits [2]: 8
Enrichment_score [3]: 4.956
ListHits [3]: 8
Enrichment_score [4]: 1.21
ListHits [4]: 2
Enrichment_score [5]: 7.653
ListHits [5]: 15
Enrichment_score [6]: 3.7618
ListHits [6]: 6
Enrichment_score [7]: 2.781
ListHits [7]: 7
Enrichment_score [8]: 1.037
ListHits [8]: 5
Enrichment_score [9]: 0.913
ListHits [9]: 1
Enrichment_score [10]: 1.626
ListHits [10]: 4
Enrichment_score [11]: 1.051
ListHits [11]: 2
Enrichment_score [12]: 3.252
ListHits [12]: 6
Enrichment_score [13]: 0.7434
ListHits [13]: 2
Enrichment_score [14]: 2.082
ListHits [14]: 1
Enrichment_score [15]: 1.927
ListHits [15]: 5
Enrichment_score [16]: 0.8174
ListHits [16]: 3
Enrichment_score [17]: 2.951
ListHits [17]: 33
Enrichment_score [18]: 1.531
ListHits [18]: 1
Enrichment_score [19]: 2.188
ListHits [19]: 14
Enrichment_score [20]: 1.406
ListHits [20]: 1
Enrichment_score [21]: 2.775
ListHits [21]: 8
Enrichment_score [22]: 3.221
ListHits [22]: 13
Enrichment_score [23]: 3.154
ListHits [23]: 2
Enrichment_score [24]: 6.195
ListHits [24]: 5
Enrichment_score [25]: 5.4777
ListHits [25]: 12
Enrichment_score [26]: 2.739
ListHits [26]: 1
Enrichment_score [27]: 5.782
ListHits [27]: 1
Enrichment_score [28]: 2.041
ListHits [28]: 2
Enrichment_score [29]: 1.859
ListHits [29]: 1
Enrichment_score [30]: 2.168
ListHits [30]: 2
Enrichment_score [31]: 0.8531
ListHits [31]: 1
Enrichment_score [32]: 1.837
ListHits [32]: 3
Enrichment_score [33]: 1.735
ListHits [33]: 1
Enrichment_score [34]: 3.294
ListHits [34]: 5
Enrichment_score [35]: 0.9637
ListHits [35]: 2
Enrichment_score [36]: 3.186
ListHits [36]: 3
Enrichment_score [37]: 1.837
ListHits [37]: 3
Enrichment_score [38]: 6.155
ListHits [38]: 55
Enrichment_score [39]: 0.9548
ListHits [39]: 2
Enrichment_score [40]: 1.706
ListHits [40]: 2
Enrichment_score (KEGG ko00960 Tropane, piperidine and pyridine alkaloid biosynthesis): 1.652
